In patent US4968697A, “2-substituted adenosine 5'-carboxamides as antihypertensive agents” (Ciba-Geigy Corporation, priority 1989, dated 1990) one finds minimal effective dose and IC50 data, which are given here for 2 compounds.

In one assay the test system is normotensive rat. The experiment in a line: blood pressure lowering effect in normotensive rats (i.v.). The format is in vivo. The note with it: iv, read-out: dose that lowers blood pressure (as low as). Here is the method:
(§1) Indicative of in vivo adenosine receptor agonist activity, the hypotensive activity of the compounds of the invention as well as their effect on heart rate can be measured in normotensive or spontaneous hypertensive rats on intravenous or oral administration.
Typically, the blood pressure lowering effect in normotensive rats can be determined as follows:
Adult male rats weighing 300-400 g are anesthetized using Inactin (100 mg/kg, i.p.). A femoral artery and contralateral vein are cannulated for direct blood pressure measurement and i.v. drug administration, respectively. Animals are allowed a 15 minute equilibration period before testing. Vehicle (1 ml/kg, i.v.) is administered over a 30 second period followed by a 0.3 ml saline flush administered over a 30 second period. Changes in diastolic blood pressure are recorded using a Beckman polygraph while heart rate is recorded as a derivative of the blood pressure pulse. The test compound is administered in the same manner as vehicle and a dose response curve is established. Percent changes in heart rate and blood pressure are recorded.

The subject of assay [1] is spontaneous hypertensive rat. The experiment in a line: blood pressure lowering effect in the spontaneous hypertensive rat (oral). The format is in vivo. The note with it: p.o., read-out: dose that lowers blood pressure (as low as). Here is the method:
as §1
The blood pressure lowering effect in the spontaneous hypertensive rat is determined on oral administration.

Assay [2] addresses T1, adenosine-2 (A-2) receptor (Rattus norvegicus, UniProt P30543).
T1 construct: striatal membrane preparations from corpus striatum of male Sprague-Dawley rats; from tissue; host or cells: corpus striatum membranes of male Sprague-Dawley rats
Kind of assay: in vitro adenosine-2 (A-2) receptor binding: inhibition of specific 3H-NECA binding in rat striatal membranes. Further details: species or system male Sprague-Dawley rats. To be noted: 4 nM 3H-NECA, in presence of 50 nM cyclopentyladenosine.
Procedure: The concentration of a particular compound required to displace the specific binding of 4 nM ^3 H-NECA is determined in the presence of 50 nM cyclopentyladenosine.

As a reminder, the pIC50 is the IC50 on a negative log10 scale, so that one unit is a factor of ten.

Molecules are shown by their SMILES. pIC50: −log10 of the molar value. Counter-ions that a name gives are not always drawn.

T1 sequence (P30543 whole entry): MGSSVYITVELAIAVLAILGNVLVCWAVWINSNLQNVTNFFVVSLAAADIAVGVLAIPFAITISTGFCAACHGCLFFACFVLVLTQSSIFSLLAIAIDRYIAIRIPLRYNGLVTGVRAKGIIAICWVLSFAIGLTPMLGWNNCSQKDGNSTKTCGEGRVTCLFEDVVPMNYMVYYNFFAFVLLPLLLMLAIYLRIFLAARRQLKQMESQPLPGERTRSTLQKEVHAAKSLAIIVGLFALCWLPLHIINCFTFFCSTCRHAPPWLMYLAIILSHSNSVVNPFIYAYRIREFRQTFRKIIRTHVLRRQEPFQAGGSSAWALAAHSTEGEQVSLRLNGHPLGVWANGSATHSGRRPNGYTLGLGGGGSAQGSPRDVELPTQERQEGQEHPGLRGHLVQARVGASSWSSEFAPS

With `CCNC(=O)[C@H]1O[C@@H](n2cnc3c(N)nc(NCCc4ccc(CCC(=O)O)cc4)nc32)[C@H](O)[C@@H]1O` [Example 2g, 2-[p-(2-carboxyethyl)-2-phenethylamino]-adenosine5'-(N-ethyl)-carboxamide], the minimal effective dose in the assay with normotensive rat is approximately 0.005 mg/kg; in assay [1], approximately 3 mg/kg. On to `CCNC(=O)[C@H]1O[C@@H](n2cnc3c(N)nc(NCCC4CCCCC4)nc32)[C@H](O)[C@@H]1O` [Example 2n, 2-(2-cyclohexylethylamino)-adenosine-5'-(N-ethyl)carboxamide hydrochloride], for which the pIC50 in assay [2] is approximately 7.89.
